Experimental data: patent US20080292617A1, “ANTIBODY AGAINST A PEPTIDE DERIVED FROM HUMAN MUTANT LAMIN A PROTEIN AND USES THEREOF” (THE TRUSTEES OF COLUMBIA UNIVERSITY IN THE CITY OF NEW YORK, priority 2005, published 2008)

Key:
HGPS fibroblast cultures = assay: Scoring of abnormally shaped nuclei in fibroblast cultures treated with farnesyltransferase inhibitor; type: cell-based, human; settings: 20 μM FTI-277 daily, after 48 h treatment, HGPS fibroblasts PPDs 35-38; decreased from 31%
Text: Indirect immunofluorescence and Western blot: Primary cultures of dermal fibroblasts were processed for indirect immunofluorescence as described previously (Paradisi et al, 2005). Rabbit antibodies directed against A-type and B-type lamins were described previously (Chaudhary et al, 1993; Cance et al, 1992). Goat anti-lamin B1 M-20 and anti-prelamin A C-20 (Santa Cruz), monoclonal antibodies anti-emerin 4G5 (Novocastra), anti-nucleoporin Nup153 clone 414 (Covance), anti-lamin A Jo14 (Serotec), and anti-Ki-67 (BD Bioscience) were purchased. Secondary antibodies were affinity purified Alexa Fluor 488 goat or donkey IgG antibodies (Molecular Probes) and Cy3-conjugated IgG antibodies (Jackson ImmunoResearch laboratories). All samples were counterstained with DAPI (Sigma-Aldrich). […]
Quantification: The percentages of ki-67 positive cells, of misshapen or blebbing nuclei, and senescence β-gal positive cells were determined by direct count of 300 cells per coverslip in triplicate, and from three independent experiments. […]
To determine the role of farnesylation in HGPS nuclear abnormalities, control and HGPS fibroblast cultures (PPDs 35-38) were treated daily with 20 μM farnesyltransferase inhibitor FTI-277 (Adjei et al, 2000). […] Progerin was also detected in nuclear foci similarly to wild-type prelamin A (FIG. 6B).

[1] = test system: progerin (LMNA G608G) in HGPS fibroblasts; assay: Immunofluorescence localization of progerin after FTI-277 treatment; type: cell-based, human
Text: Indirect immunofluorescence and Western blot: Primary cultures of dermal fibroblasts were processed for indirect immunofluorescence as described previously (Paradisi et al, 2005). Rabbit antibodies directed against A-type and B-type lamins were described previously (Chaudhary et al, 1993; Cance et al, 1992). Goat anti-lamin B1 M-20 and anti-prelamin A C-20 (Santa Cruz), monoclonal antibodies anti-emerin 4G5 (Novocastra), anti-nucleoporin Nup153 clone 414 (Covance), anti-lamin A Jo14 (Serotec), and anti-Ki-67 (BD Bioscience) were purchased. Secondary antibodies were affinity purified Alexa Fluor 488 goat or donkey IgG antibodies (Molecular Probes) and Cy3-conjugated IgG antibodies (Jackson ImmunoResearch laboratories). All samples were counterstained with DAPI (Sigma-Aldrich). When cells were treated daily for 3 days with farnesyltransferase inhibitor FTI-277 (Calbiochem), the culture medium was supplemented with 20 μM FTI-277 or DMSO prior to immunofluorescence analysis as described previously (Adjei et al, 2000). Images were processed using Adobe Photoshop. For Western blot analysis, total cellular protein extracts were isolated from dermal fibroblast cultures at different population doublings (25 to 55) and processed as described previously (Paradisi et al, 2005).
To determine the role of farnesylation in HGPS nuclear abnormalities, control and HGPS fibroblast cultures (PPDs 35-38) were treated daily with 20 μM farnesyltransferase inhibitor FTI-277 (Adjei et al, 2000). After 48 h treatment, the percentage of HGPS nuclei with abnormal shapes decreased from 31% to 8% (FIG. 6A). The intranuclear repartition of prelamin A and the localization of LMNA G608G differed greatly between treated and un-treated cells; prelamin A was not detectable in control or HGPS cells (FIG. 6B). […] Progerin was also detected in nuclear foci similarly to wild-type prelamin A (FIG. 6B).

- percentage of HGPS nuclei with abnormal shapes (HGPS fibroblast cultures): 8%
Structure (SMILES): COC(=O)[C@H](CCSC)NC(=O)c1ccc(NC[C@@H](N)CS)cc1-c1ccccc1 [FTI-277]
- progerin localization (anti-LMNA G608G staining) ([1]; 20 μM FTI-277, 76 h after treatment): progerin was totally depleted from the NE in most nuclei
- progerin localization (anti-LMNA G608G staining) ([1]; 20 μM FTI-277, after 24 h treatment): progerin was still incorporated into the nuclear lamina
- progerin localization (anti-LMNA G608G staining) ([1]; 20 μM FTI-277, after 48 h treatment): progerin was progressively depleted from the NE and lamina
